Data on 44 compounds can be found in the Biogen ADME set (Fang et al. 2023).

For the data set the following is noted: for aqueous solubility: pH 6.8.

Values after ≈ are worked out from the molar mass of the structure shown. Where only a bound is given, the exact number is not on record here.

As usually defined, the aqueous solubility is the dissolved amount per volume that the medium holds.

In the case of `Cc1nn(C)c(C)c1NC(=O)CN1CCN(c2nccs2)CC1`, the MDR1-MDCK efflux ratio stood at 18.9; the intrinsic clearance, human liver microsomes was no more than 4.74 mL/min/kg; the intrinsic clearance, rat liver microsomes was 14.3 mL/min/kg; the aqueous solubility was determined as 58.2 µg/mL (≈ 174 µM).

Consider `Cc1cccc(NC(=O)c2cccc3ncccc23)c1`, for which the MDR1-MDCK efflux ratio was determined as 0.471; the intrinsic clearance, human liver microsomes is 22.2 mL/min/kg; the intrinsic clearance, rat liver microsomes was 155 mL/min/kg; the aqueous solubility came to 4.85 µg/mL (≈ 18.5 µM).

Take `CC(=O)Nc1nc(-c2c(C)cc(C)cc2C)cs1`: the MDR1-MDCK efflux ratio is 0.559; the intrinsic clearance, human liver microsomes came out at 24.9 mL/min/kg; the intrinsic clearance, rat liver microsomes worked out at 2360 mL/min/kg; the aqueous solubility is 19.2 µg/mL (≈ 73.7 µM).

As for `CNc1cc(Nc2cccn(-c3ccccn3)c2=O)nn2c(C(=O)N[C@@H]3C[C@@H]3F)cnc12`, the MDR1-MDCK efflux ratio was determined as 31.1; the fraction unbound, human plasma turned out to be 0.098; the fraction unbound, rat plasma was found to be 0.033; the intrinsic clearance, human liver microsomes was no more than 4.74 mL/min/kg. The compound further displayed an intrinsic clearance, rat liver microsomes of 24.7 mL/min/kg and an aqueous solubility of 1.23 µg/mL (≈ 2.83 µM).

On to `COc1ccc(C(=O)c2ccc(C)cc2)c(OC)c1`, for which the MDR1-MDCK efflux ratio was found to be 0.46; the intrinsic clearance, human liver microsomes came to 102 mL/min/kg; the intrinsic clearance, rat liver microsomes amounted to 3010 mL/min/kg.

`O=C(Nc1nc2ccccc2[nH]1)C1CCCCC1`: the MDR1-MDCK efflux ratio turned out to be 0.721; the intrinsic clearance, human liver microsomes was found to be 15.5 mL/min/kg; the intrinsic clearance, rat liver microsomes came to 189 mL/min/kg; the aqueous solubility stood at 2.44 µg/mL (≈ 10 µM).

For the compound `Cc1cc(C(=O)Nc2cccc3ncccc23)on1`, the MDR1-MDCK efflux ratio was found to be 0.559; the intrinsic clearance, human liver microsomes was no more than 4.74 mL/min/kg; the intrinsic clearance, rat liver microsomes was found to be 11.1 mL/min/kg; the aqueous solubility amounted to 45.4 µg/mL (≈ 179 µM).

Regarding `COc1ccc(OCc2n[nH]c(-c3ncoc3C(C)C)n2)cc1`, the MDR1-MDCK efflux ratio came out at 0.675; the intrinsic clearance, human liver microsomes was determined as 17.8 mL/min/kg; the intrinsic clearance, rat liver microsomes was found to be 514 mL/min/kg.

With `Nc1nc(CN2CCN(c3ccc(F)cc3)CC2)cs1`, the MDR1-MDCK efflux ratio was 0.597; the intrinsic clearance, human liver microsomes was no more than 4.74 mL/min/kg; the intrinsic clearance, rat liver microsomes came out at 49.7 mL/min/kg; the aqueous solubility was found to be 57 µg/mL (≈ 195 µM).

On to `Cc1cccc2sc(NC(=O)C(C)(C)C)nc12`, for which the MDR1-MDCK efflux ratio amounted to 0.352; the intrinsic clearance, human liver microsomes is 36.5 mL/min/kg; the intrinsic clearance, rat liver microsomes is 207 mL/min/kg; the aqueous solubility was 22.6 µg/mL (≈ 91.1 µM).

In the case of `CCN(C(=O)CN1CCNC(=O)C1)c1ccc(F)cc1`, the MDR1-MDCK efflux ratio amounted to 49.4; the intrinsic clearance, human liver microsomes is no more than 4.74 mL/min/kg; the intrinsic clearance, rat liver microsomes is no more than 10.7 mL/min/kg; the aqueous solubility is 34.8 µg/mL (≈ 125 µM).

For the compound `CC(C)c1csc(NC(=O)C2CCN(c3ncccn3)CC2)n1`, the MDR1-MDCK efflux ratio is 0.562; the intrinsic clearance, human liver microsomes is 44.6 mL/min/kg; the intrinsic clearance, rat liver microsomes stood at 268 mL/min/kg; the aqueous solubility was determined as 44.8 µg/mL (≈ 135 µM).

With `O=C([C@H]1CCCN(Cc2ccc(F)cc2)C1)N1CCc2ccccc2C1`, the MDR1-MDCK efflux ratio turned out to be 0.792; the intrinsic clearance, human liver microsomes came to 336 mL/min/kg; the intrinsic clearance, rat liver microsomes is 3660 mL/min/kg; the aqueous solubility came out at 50 µg/mL (≈ 142 µM).

`C[C@H]1Oc2cc(cnc2N)-c2c(nn(C)c2C#N)CN(C)C(=O)c2ccc(F)cc21`: the MDR1-MDCK efflux ratio stood at 14.5; the intrinsic clearance, human liver microsomes is no more than 4.74 mL/min/kg; the intrinsic clearance, rat liver microsomes is 34.3 mL/min/kg.

In turn, `NS(=O)(=O)C#Cc1ccccc1` yielded an intrinsic clearance, human liver microsomes of 10.6 mL/min/kg and an intrinsic clearance, rat liver microsomes of no more than 10.7 mL/min/kg.

As for `CN(C(=O)CSC(C)(C)C)c1ccccc1C#N`, the MDR1-MDCK efflux ratio stood at 0.808; the intrinsic clearance, human liver microsomes is 47.3 mL/min/kg; the intrinsic clearance, rat liver microsomes worked out at 687 mL/min/kg.

With `c1ccc(-c2n[nH]c(C3CCN(c4cnc5ccccc5n4)CC3)n2)cc1`, the MDR1-MDCK efflux ratio came out at 1.2; the intrinsic clearance, human liver microsomes stood at 10.7 mL/min/kg; the intrinsic clearance, rat liver microsomes was 114 mL/min/kg; the aqueous solubility turned out to be 6.21 µg/mL (≈ 17.4 µM).

On to `CNC(=O)C1(Cc2ccc(-c3cccnc3)cc2)CCN(Cc2cccc(F)c2)C1` (stereo unspecified), for which the MDR1-MDCK efflux ratio was 1.32; the fraction unbound, human plasma came out at 0.0676; the fraction unbound, rat plasma is 0.034; the intrinsic clearance, human liver microsomes amounted to 280 mL/min/kg. This compound gave an intrinsic clearance, rat liver microsomes of 982 mL/min/kg.

As for `CCNC(=O)c1ccc(-c2cc(C)cc(OC)c2OC)nc1`, the MDR1-MDCK efflux ratio is 0.998; the intrinsic clearance, human liver microsomes was no more than 4.74 mL/min/kg; the intrinsic clearance, rat liver microsomes stood at 93.1 mL/min/kg; the aqueous solubility came out at 34.8 µg/mL (≈ 116 µM).

As to `CC(C)CN1C(=O)C(=O)N(Cc2ccccn2)C1=O`, the MDR1-MDCK efflux ratio came out at 0.838; the intrinsic clearance, human liver microsomes was no more than 4.74 mL/min/kg; the intrinsic clearance, rat liver microsomes amounted to 28.4 mL/min/kg; the aqueous solubility was found to be 39.2 µg/mL (≈ 150 µM).

In turn, `CCC(Oc1ccccc1)C(=O)Nc1nc2ccccc2[nH]1` (stereo unspecified) yielded an aqueous solubility of 11.8 µg/mL (≈ 40.1 µM).

With `Cc1cccc(C)c1CNC1(CCO)CCOCC1`, the MDR1-MDCK efflux ratio stood at 0.972; the intrinsic clearance, human liver microsomes was no more than 4.74 mL/min/kg; the intrinsic clearance, rat liver microsomes came out at 74.3 mL/min/kg.

In the case of `CC(C)N(C(=O)Cn1cccc2cc(-c3ccco3)nc1-2)C(C)C`, the MDR1-MDCK efflux ratio was 1.81; the intrinsic clearance, human liver microsomes stood at 373 mL/min/kg; the intrinsic clearance, rat liver microsomes was found to be 1790 mL/min/kg.

For the compound `O=C(Cc1csc(-c2ccc(F)c(F)c2)n1)NCC(F)(F)F`, the aqueous solubility came out at 0.36 µg/mL (≈ 1.07 µM).

Regarding `CNC(=O)c1ccc(N2CCCC2)nc1`, the MDR1-MDCK efflux ratio is 0.58; the intrinsic clearance, human liver microsomes amounted to 44.7 mL/min/kg; the intrinsic clearance, rat liver microsomes came out at 58.1 mL/min/kg; the aqueous solubility amounted to 34.7 µg/mL (≈ 169 µM).

Turning to `Cc1noc(C)c1-c1cc(-c2ccccc2Cl)nc(C2CC2)n1`, the MDR1-MDCK efflux ratio stood at 0.516; the intrinsic clearance, human liver microsomes turned out to be 21.8 mL/min/kg; the intrinsic clearance, rat liver microsomes amounted to 145 mL/min/kg.

For the compound `O=C(Cn1c(=O)c2cccn2c2ccccc21)NCCCN1CCCC1`, the MDR1-MDCK efflux ratio was determined as 78.1; the intrinsic clearance, human liver microsomes is no more than 4.74 mL/min/kg; the intrinsic clearance, rat liver microsomes was found to be 634 mL/min/kg; the aqueous solubility came to 52.3 µg/mL (≈ 148 µM).

With `CC(C)(O)CCn1cc2cc(NC(=O)c3cccc(C(F)(F)F)n3)c(C(C)(C)O)cc2n1`, the MDR1-MDCK efflux ratio turned out to be 10.2; the fraction unbound, human plasma is 0.104; the fraction unbound, rat plasma came to 0.124; the intrinsic clearance, human liver microsomes is 9.92 mL/min/kg. The compound also displayed an intrinsic clearance, rat liver microsomes of 42.6 mL/min/kg.

As for `CC(C)c1nnc(CNc2ncc(Br)cn2)n1C`, the MDR1-MDCK efflux ratio was 4.39; the intrinsic clearance, human liver microsomes is no more than 4.74 mL/min/kg; the intrinsic clearance, rat liver microsomes is no more than 10.7 mL/min/kg.

For `CN(Cc1c(F)cccc1Cl)C(=O)C1(C#N)CCCC1`, the intrinsic clearance, human liver microsomes is 111 mL/min/kg; the intrinsic clearance, rat liver microsomes was 1250 mL/min/kg; the aqueous solubility worked out at 35.2 µg/mL (≈ 120 µM).

As for `COCCS(=O)(=O)N1CCC2(Cc3ccccc3C2)C1`, the MDR1-MDCK efflux ratio worked out at 0.583; the intrinsic clearance, human liver microsomes is 19.2 mL/min/kg; the intrinsic clearance, rat liver microsomes turned out to be 893 mL/min/kg; the aqueous solubility came out at 54 µg/mL (≈ 183 µM).

Turning to `Cc1cc(N)n(-c2ncnc3sc(C)c(-c4ccc(Cl)cc4)c23)n1`, the MDR1-MDCK efflux ratio stood at 0.712; the intrinsic clearance, human liver microsomes was 94.2 mL/min/kg; the intrinsic clearance, rat liver microsomes was determined as 670 mL/min/kg; the aqueous solubility came to 6.32 µg/mL (≈ 17.8 µM).

`O=C(NCc1nc(-c2cnccn2)n[nH]1)C1Cc2ccccc2C1`: the MDR1-MDCK efflux ratio was 8.75; the intrinsic clearance, human liver microsomes is no more than 4.74 mL/min/kg; the intrinsic clearance, rat liver microsomes amounted to 19 mL/min/kg.

In the case of `Cc1ccc(OCc2noc(-c3ccsc3)n2)cn1`, the MDR1-MDCK efflux ratio amounted to 0.524; the intrinsic clearance, human liver microsomes was 56.1 mL/min/kg; the intrinsic clearance, rat liver microsomes was 204 mL/min/kg; the aqueous solubility stood at 52.7 µg/mL (≈ 193 µM).

Regarding `c1ccc(-c2nsc(N3CCCN(c4nccs4)CC3)n2)cc1`, the MDR1-MDCK efflux ratio was found to be 0.656; the intrinsic clearance, human liver microsomes came out at 145 mL/min/kg; the intrinsic clearance, rat liver microsomes turned out to be 1470 mL/min/kg; the aqueous solubility is 29.6 µg/mL (≈ 86.2 µM).

Consider `CC(c1nnc(-c2cccs2)o1)N1CCC(n2c(=O)[nH]c3ccccc32)CC1` (stereo unspecified), for which the MDR1-MDCK efflux ratio was 21.1; the intrinsic clearance, human liver microsomes was 18.1 mL/min/kg; the intrinsic clearance, rat liver microsomes was 273 mL/min/kg; the aqueous solubility turned out to be 56.9 µg/mL (≈ 144 µM).

In turn, `COc1ccc2c(c1)C(=O)N(c1ccc(C)cc1)C(=O)C2` yielded an intrinsic clearance, human liver microsomes of 29.8 mL/min/kg and an intrinsic clearance, rat liver microsomes of 368 mL/min/kg.

As to `CC(=O)N1CCC(C(=O)Nc2nccs2)(c2ccccc2)CC1`, the MDR1-MDCK efflux ratio is 39.4; the intrinsic clearance, human liver microsomes was 5.73 mL/min/kg; the intrinsic clearance, rat liver microsomes was 236 mL/min/kg; the aqueous solubility is 62.3 µg/mL (≈ 189 µM).

Consider `Cc1nc2c(cnn2C(C)C)c(C)c1CCC(=O)O`, for which the intrinsic clearance, human liver microsomes was no more than 4.74 mL/min/kg; the intrinsic clearance, rat liver microsomes was no more than 10.7 mL/min/kg; the aqueous solubility worked out at 25.7 µg/mL (≈ 98.3 µM).

`COCc1noc(CNC(=O)N(C)[C@@H](C)c2ccccc2)n1`: the MDR1-MDCK efflux ratio amounted to 2.71; the intrinsic clearance, human liver microsomes was no more than 4.74 mL/min/kg; the intrinsic clearance, rat liver microsomes turned out to be 63.5 mL/min/kg.

As to `NC(=O)c1cnc(N2CCc3[nH]nc(C(F)(F)F)c3C2)c(Cl)c1`, the MDR1-MDCK efflux ratio came out at 7.33; the fraction unbound, human plasma was 0.0968; the intrinsic clearance, human liver microsomes is no more than 4.74 mL/min/kg.

`CC(=O)N1CCN(c2ncc(-c3cc(C)no3)c([C@H]3CCCO3)n2)CC1`: the MDR1-MDCK efflux ratio was determined as 2.44; the intrinsic clearance, human liver microsomes was no more than 4.74 mL/min/kg; the intrinsic clearance, rat liver microsomes was determined as 22.9 mL/min/kg; the aqueous solubility was determined as 68.6 µg/mL (≈ 192 µM).

Consider `CN1CCC(n2ncc3[nH]c(-c4ccc5ccccc5c4)nc32)CC1`, for which the MDR1-MDCK efflux ratio was 13.9; the intrinsic clearance, human liver microsomes was 23.4 mL/min/kg; the intrinsic clearance, rat liver microsomes was found to be 928 mL/min/kg; the aqueous solubility is 42.1 µg/mL (≈ 127 µM).

Turning to `CC(C)CCN1CCC(CNC(=O)C2CC=CC2)CC1`, the MDR1-MDCK efflux ratio was 3.77; the intrinsic clearance, human liver microsomes was found to be 12.5 mL/min/kg; the intrinsic clearance, rat liver microsomes is 141 mL/min/kg.
